Results published in patent US7560241B2, “Methods and compositions for modulating mitochondrial aldehyde dehydrogenase-2” (The Board of Trustees of the Leland Stanford Junior …, priority 2003, dated 2009).
“And” between values parts separate entries of the source, which are not always exact repeats. Identical values can stand only once. “Also recorded” adds a separate entry of the source. Like-named read-outs stand apart in the source and are kept apart here.

Tests used:
rat hearts = assay: ischemia/reperfusion damage in ex vivo Langendorff rat hearts, infarct size by TTC staining; details: for ischemic damage by TTC staining of heart sections: ischemia/reperfusion
AldDH2 = assay: aldehyde dehydrogenase enzymatic activity in homogenates of ex vivo Langendorff rat hearts (NADH at 340 nm, acetaldehyde substrate); format: biochemical; details: for inhibition of AldDH2: during ischemia reperfusion; for rate of NADH accumulation (absorbance at 340 nm), FIG. 4: ethanol before ischemia vs I/R alone or normoxia, cyanamide in ethanol treated ischemic or normoxic samples
Method: Ex vivo Langendorff preparation of rat hearts were used as a model to assess the damage incurred by no-flow ischemia and reperfusion injury. This is an experimental model that mimics the clinical situation of myocardial infarction in patients. Rat hearts were excised and cannulated on a Langendorff apparatus via the aorta. Retrograde perfusion was carried out using the standard oxygenated Kreb-Hensleit buffer maintained at 37° C. All hearts were stabilized by an initial 5- to 10-minute perfusion period followed by delivery of different cardioprotective agents or AldDH2 inhibitors for 10-30 minutes, depending on the reagent. […] Ischemia was then introduced by 25 minutes of no-flow followed by 60 minutes of reperfusion. The degree of ischemia/reperfusion damage was measured by two independent commonly accepted parameters. […] In another assay, creatine phosphate kinase activity was measured from reperfusate of each heart collected during reperfusion. […] Homogenates from each heart was also obtained from a separate section of the identical sample and analyzed for aldehyde dehydrogenase enzymatic activity. Enzymatic activity was determined by a standard spectrophotometric method described above using acetaldehyde as the substrate and NAD^+ as a cofactor. FIG. 2: An experimental protocol using an ex vivo Langendorff heart. Rat hearts were excised and cannulated on a Langendorff apparatus via aorta. Retrograde perfusion was carried out using the standard oxygenated Kreb-Hensleit buffer maintained at 37° C. […] Peptides used were a selective activator (εV1-7) or inhibitor (εV1-2) or epsilon protein kinase C (εPKC). Ischemia was then introduced by 25 minutes of no-flow followed by 60 minutes of reperfusion. […] FIG. 3: Formation of acetic acid from acetaldehyde by action of aldehyde dehydrogenase. Enzymatic activity of aldehyde dehydrogenase is determined by a standard photospectrometric method using acetaldehyde as a substrate. In this reaction, aldehyde dehydrogenase catalyzes the oxidation of acetaldehyde to acetic acid. Concomitantly, NAD^+ is reduced to NADH resulting in an increase in absorbance at 340 nm wavelength in a photospectrometer. The rate of NADH increase is proportional to the enzymatic activity of aldehyde dehydrogenase.

In the case of `O=[N+]([O-])OCC(CO[N+](=O)[O-])O[N+](=O)[O-]` [Nitroglycerin, nitroglycerin], the “increase in infarct damage” value (rat hearts) is reported as 36% and 31% and the “increase in ischemia/reperfusion damage as measured by infarct size” value (rat hearts) is reported as 29%.

In the case of `N#CN` [cyanamide], the “effect on induction of AldDH2 activity by ethanol or εPKC agonist peptide” value (AldDH2; co-treatment, ischemia/reperfusion) is reported as “effect of induction is also greatly abolished”, the “inhibition of AldDH2” value (AldDH2; cyanamide treatment in the absence of ethanol or peptide) is reported as 63% and the “inhibition of AldDH2” value (AldDH2; cyanamide treatment in the presence of ethanol) is reported as 64%. For the same compound, the “inhibition of AldDH2” value (AldDH2; cyanamide treatment in the presence of peptide) was 74%, the “rate of NADH accumulation (absorbance at 340 nm), FIG. 4” value (AldDH2) was “reduction of NADH accumulation” and the “AldDH2 activity in normoxic heart samples” value (AldDH2; normoxic) was “inhibition of AldDH2 activity”. The “increase in ischemia/reperfusion damage as measured by infarct size” value (rat hearts; agent alone, compared to no treatment control) was 49%, the “increase in infarct damage” value (rat hearts; in samples treated with ethanol) was 62% and the “increase in infarct damage” value (rat hearts; in samples treated with εPKC agonist peptide) was 56%. The “ischemic damage by TTC staining of heart sections” value (rat hearts; compared to control heart) was “eliminates the protective effect of ethanol and leads to an even greater damage as compared to control” and the “cardiac damage under normoxic condition” value (rat hearts; normoxic, compared to control heart) was “does not produce any significantly greater damage than the control heart; also recorded: did not lead to any greater cardiac damage”.

`CCO` [ethanol] was tested, and the “increase in AldHD2 activity” value (AldDH2; as compared to ischemia/reperfusion control, ethanol 50 mM for 10 minutes, peptide 1 μM) was 25%, the “rate of NADH accumulation (absorbance at 340 nm), FIG. 4” value (AldDH2) was “increase in the rate of absorbance” and the “ischemic damage by TTC staining of heart sections” value (rat hearts; compared to control heart) was “leads to cardioprotection”.
